Assay results as given in EP0526502B1, “PHENOLIC AMINE DEPIGMENTING AND ANTIMELANOMA AGENTS” (The Governors of the University of Alberta, priority 1990, dated 1991).

Assays:
Mushroom tyrosinase = Mushroom tyrosinase (Agaricus bisporus, UniProt C7FF04); experiment: Enzyme kinetics with tyrosinase (substrate disappearance by HPLC, Lineweaver-Burk); type: biochemical; settings: result in words
Experimental: (§1) Mushroom tyrosinase (400 units/mg) and plasma MAO (1000 units/gm) were obtained from Sigma Chemical Co. (St. Louis, MO, USA). A reaction mixture consisted of a substrate of 7 to 8 different concentrations (40 to 500 »M for mushroom tyrosinase and 20 to 200 »M for MAO) and of either mushroom tyrosinase (2.5 »g) or MAO (10 »g) in 1.0 mL of 0.05 M sodium phosphate buffer, pH 6.8 and 7.4 respectively. The reactions were carried out at 37°C in a shaking water bath, and stopped by taking 100 »L of the reaction mixture and adding it to 900 »L of 0.4 M HCLO₄. The disappearance of substrate was followed using HPLC (high pressure liquid chromatography) Km and Vmax values were calculated from the Lineweaver-Burk plots.

plasma MAO = target: T1, plasma MAO (Bos taurus, UniProt Q29437); experiment: Enzyme kinetics with monoamineoxidase (substrate disappearance by HPLC, Lineweaver-Burk); type: biochemical; settings: result in words
T1 construct: purchased Sigma Chemical Co. (St. Louis, MO, USA)
T1 sequence (Q29437 17-762): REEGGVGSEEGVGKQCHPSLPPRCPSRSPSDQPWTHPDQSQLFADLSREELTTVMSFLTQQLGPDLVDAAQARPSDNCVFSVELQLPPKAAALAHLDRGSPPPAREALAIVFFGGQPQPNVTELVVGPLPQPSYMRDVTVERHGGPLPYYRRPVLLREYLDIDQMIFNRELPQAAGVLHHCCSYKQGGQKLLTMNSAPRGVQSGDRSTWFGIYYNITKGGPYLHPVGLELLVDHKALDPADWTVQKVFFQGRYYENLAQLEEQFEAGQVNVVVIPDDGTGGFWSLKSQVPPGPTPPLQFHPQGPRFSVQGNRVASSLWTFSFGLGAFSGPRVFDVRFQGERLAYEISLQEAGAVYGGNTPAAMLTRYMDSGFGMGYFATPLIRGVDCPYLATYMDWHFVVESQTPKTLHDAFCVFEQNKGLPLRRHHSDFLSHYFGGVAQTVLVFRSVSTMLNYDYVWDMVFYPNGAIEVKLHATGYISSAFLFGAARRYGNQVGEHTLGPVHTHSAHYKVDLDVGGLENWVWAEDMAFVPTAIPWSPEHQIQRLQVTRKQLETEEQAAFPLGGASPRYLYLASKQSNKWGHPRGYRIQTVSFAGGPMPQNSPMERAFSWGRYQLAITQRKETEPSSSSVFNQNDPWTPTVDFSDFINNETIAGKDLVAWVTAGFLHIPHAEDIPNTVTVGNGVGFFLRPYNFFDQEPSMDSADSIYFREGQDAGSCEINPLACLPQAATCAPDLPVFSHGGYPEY
Experimental: as §1

[1] = Acute toxicity / lethal dose and maximum tolerable dose
Experimental: 3:1-85 1972. In accordance with this Protocol, ten to fifteen mice were used in each test group. They were weighed and randomized at day one after s.c. inoculation of B16 melanoma cells. From day five, the phenolic melanin precursors were administered i.p. daily for nine days. The test compounds were dissolved in normal saline, and sterilized by heating to 100°C for 2 minutes. […] They were administered i.p. with the following doses: 400 mg/Kg - 4-S-CAP; 200 to 300 mg/Kg - 4-S-CAP; and 200 to 1200 mg/Kg - N-Ac-4-S-CAP. A catalytic amount of L-dopa, 25 mg/Kg and antidecarboxylase, carbidopa, 400 mg/Kg, were also administered. Carbidopa was given one hour prior to L-dopa administration. DTIC (NSC 4538) was used as a control drug at a dose of 60 mg/Kg. Acute toxicity of 4-S-CP and 4-S-CAP was evaluated from 100 to 1600 mg/Kg.
The B16 mouse melanoma was maintained by s.c. inoculation of tumour cells into the back of C57BL7J mice (5 to 6 weeks, female). […] Briefly, excised tumours were homogenized in normal saline. The homogenized tumour cells were then passed through a sterile 80 mesh stainless steel screen, washed with normal saline, centrifuged (500 g. for 10 minutes) and resuspended in normal saline. Suspensions of viable melanoma cells at the concentration of 1 x 10⁶ per 0.1 ml were inoculated s.c. into both the right and left inguinal areas of C57BL/6J mice (female, 5 to 6 weeks old, 18 to 20 gm).

B16 melanoma = experiment: In vivo growth inhibition of s.c. inoculated B16 melanoma; parameters: species or system C57BL/6J mice; settings: day 12 or 13
Experimental: The in vivo antimelanoma effect of the compounds were evaluated by percent growth inhibition of inoculated tumour (%g.i.). The percent g.i. was computed from the mean tumour volume at day 12 or 13 of the experiments; i.e., 100 x (1- treated group/control group). […] To further examine whether a minimal dose of N-Ac-4-S-CAP, 200 mg/Kg has an antimelanoma effect, three groups of mice were treated with N-Ac-4-S-CAP. […] One of the advantages of N-Ac-4-S-CAP over 4-S-CAP was that it had much higher LD⁵⁰ (as high as 1400 mg/Kg of body weight, and therefore a greater range of safety).

[2] = Experiment I, 200 mg/Kg i.p. daily for nine days
[3] = Experiment I, 400 mg/Kg i.p. daily for nine days
[4] = Experiment I, 600 mg/Kg i.p. daily for nine days
[5] = Experiment I, 800 mg/Kg i.p. daily for nine days
[6] = Experiment II, 400 mg/Kg i.p. daily for nine days
[7] = Experiment II, 800 mg/Kg i.p. daily for nine days
[8] = Experiment II, 1200 mg/Kg i.p. daily for nine days

Mushroom tyrosinase, sequence (C7FF04 1-392): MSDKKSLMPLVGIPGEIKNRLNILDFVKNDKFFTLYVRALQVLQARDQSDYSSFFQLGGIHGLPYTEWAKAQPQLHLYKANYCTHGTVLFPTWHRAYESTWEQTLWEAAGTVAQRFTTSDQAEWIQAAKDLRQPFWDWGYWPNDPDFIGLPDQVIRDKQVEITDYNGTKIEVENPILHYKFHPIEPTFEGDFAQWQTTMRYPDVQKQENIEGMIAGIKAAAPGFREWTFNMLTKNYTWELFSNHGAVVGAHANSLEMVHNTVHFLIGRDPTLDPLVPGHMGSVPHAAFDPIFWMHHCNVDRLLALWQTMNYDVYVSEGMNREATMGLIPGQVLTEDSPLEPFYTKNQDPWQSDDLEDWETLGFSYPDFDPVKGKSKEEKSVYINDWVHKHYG

SMILES: CC(=O)NCCSc1ccc(O)cc1 [N-Ac-4-S-CAP, N-ACETYL-4-S-CYSTEAMINYLPHENOL]
- tyrosinase substrate (Mushroom tyrosinase): is also a tyrosinase substrate
- substrate for plasma MAO (plasma MAO): not, however, a substrate for plasma MAO
- lethal dose ([1]; acute toxicity, mice): 1400 mg/kg
- per single dose toxicity levels ([1]; experimental tests on animals, single dose): ~1,400 mg/kg of body weight
- LD50 ([1]; mouse, in vivo, ip): 1400 mg/kg
- %Gi (B16 melanoma; [2]): 39.8%
- Tumour Volume (B16 melanoma; [2]): 313 ± 83 mm^3
- %Gi (B16 melanoma; [3]): 57.3%
- Tumour Volume (B16 melanoma; [3]): 222 ± 13 mm^3
- %Gi (B16 melanoma; [4]): 63.18%
- Tumour Volume (B16 melanoma; [4]): 192 ± 48 mm^3
- %Gi (B16 melanoma; [5]): 74.4%
- Tumour Volume (B16 melanoma; [5]): 133 ± 11 mm^3
- %Gi (B16 melanoma; Experiment II, 200 mg/Kg i.p. daily for nine days): 32.0%
- %Gi (B16 melanoma; [6]): 34.0%
- Tumour Volume (B16 melanoma; [6]): 359 ± 52 mm^3
- %Gi (B16 melanoma; [7]): 63.4%
- Tumour Volume (B16 melanoma; [7]): 199 ± 26 mm^3
- %Gi (B16 melanoma; [8]): 70.7%
- Tumour Volume (B16 melanoma; [8]): 159 ± 23 mm^3
